{"source": "patent US5707821A", "about": "“Identification of phospholipase A2 inhibitors in Aβ peptide-mediated neurodegenerative disease” (priority 1995, dated 1998)", "assay_type_in_all_cases": "cell-based", "key": {"[1]": {"test_system": "TNFα release by cultured human cortical microglia", "experiment": "TNF release from LPS-stimulated human cortical microglia", "procedure": "(§1) Cultures of human cortical or hippocampal astrocytes and microglia were prepared using a modification of the procedure described for cortical neurons. Cortical tissue from fetuses of 16 to 20 weeks of gestation was washed 3 times in Ca^2+ /Mg^2+ free Hanks balanced salt solution (CMF HBSS) and then dissociated by repeated pipetting. The solution was brought to a final volume of 80 ml CMF HBSS for approximately 10 ml of tissue. DNase (Sigma) was added to a final concentration of 0.05 mg/ml. 20 ml of the solution was passed through one 100 μm nylon cell strained (Falcon). The cells were then centrifuged for 5 minutes at 200×G in an IEC Clinical Centrifuge and resuspended in a trypsin/EDTA solution (0.05% trypsin+0.53 mM EDTA in HBSS; Gibco) and incubated for 20 minutes at 37°C. (10 ml of trypsin was added per 2-3 ml of tissue). The trypsin was then inactivated by adding (MEM/FBS): Modified Eagle's Medium (MEM) containing 1% glucose, 1 mM sodium pyruvate, 1 mM glutamine, and supplemented with 10% fetal bovine serum (JRH). After adding a final concentration of 0.05 mg/ml DNase the cells were resuspended and then pelleted by centrifugation and resuspended in MEM/FBS. 1.6×10^8 cells were seeded in a T-150 tissue culture flask coated with polyethyleneimine (PEI). (10% PEI (Sigma) was diluted 1:10 in H2 O, filtered through a […] unit and then diluted into 150 mM sodium borate pH 8.5 at 1:100. The flasks were coated overnight at room temperature, washed two times in PBS and coated with 20 ml/flask of MEM/FBS at 37° C. for at least one hour prior to plating cells.) Cultures were maintained in a H2 O-saturated incubator with an atmosphere of 95% air/5% CO2 at 37° C. The culture medium was changed one and four days after plating and the cultures were then left undisturbed for at least one week. After approximately two weeks in vitro, the flasks were gently shaken and floating microglia were collected and centrifuged for 5 minutes at 200×G in an IEC Clinical Centrifuge. The microglia were reseeded in 96 well tissue culture plates at a density of 5,000-40,000 cells/well in 125 μl in MEM/FBS. Astrocyte cultures were prepared by multiple passaging of the established mixed brain cell cultures. Each T-150 was incubated for 3-4 minutes at 37°C. with a trypsin/EDTA solution (see above). The trypsin was then inactivated by adding MEM/FBS. The cells were triturated and then pelleted by centrifugation and resuspended in MEM/FBS. The cells from one T-150 were seeded at a 1:30 to 1:5 dilution in T-150's not coated. Just prior to confluency the cells were repassaged by trypsinization as described above. This process was repeated until the cultures were >98% pure astrocytes.\n(§2) The effects of the benzenesulfonamide PLA2 inhibitor AN20606 and the selective cytosolic PLA2 inhibitor arachidonyl trifluoromethyl ketone (AN20579) were examined in cultured human cortical microglia for their selectivity for inhibiting microglia activation mediated by amyloid-βpeptide and lipopolysaccharides (LPS). LPS are a major constituent of the cell wall of gama-negative bacteria and are extensively used for generating inflammatory responses in cultured cells and in vivo."}, "[2]": {"test_system": "IL-1β release by cultured human cortical microglia", "experiment": "IL-1β release (ELISA) from Aβ1-40-stimulated human microglia", "procedure": "as §1\n(§3) Cultured microglial cells were treated with 50 μM of Aβ1-40 or vehicle only (Control). The levels of IL-1β, IL-6, and TNF-α released into the culture medium were determined by ELISA assay (R&D Systems) according to manufacturer's instructions.\n(§4) The effect of two benzenesulfonamide inhibitors of PLA2 (European Patent Application 468 054) were examined on the activation of microglial cells by Aβ1-40 as in Example 1.\nas §2"}, "[3]": {"test_system": "TNF-α release by cultured human cortical microglia", "experiment": "TNF-α release (ELISA) from Aβ1-40-stimulated human microglia", "procedure": "as §1, §3, §4, §2"}, "[4]": {"test_system": "IL-1β release by cultured human cortical microglia", "experiment": "IL-1 release from LPS-stimulated human cortical microglia", "procedure": "as §1, §2"}, "[5]": {"settings": "10 ng/ml LPS, inhibitor 20 μM where present"}, "[6]": {"settings": "50 μM Aβ1-40, 1 day, compound 0, 5, 10, 20 μM, FIG. 2"}, "[7]": {"settings": "50 μM Aβ1-40, inhibitor 20 μM where present"}}, "data": [{"smiles": "CN(C(=O)/C=C/c1ccc(S(C)(=O)=O)cc1)c1ccc(S(=O)(=O)NC2CCCCCC2)cc1", "note": "[AN20606, N-cycloheptyl-4-[N-methyl-N-[(E)-3-(4-methylsulfonylphenyl)-2-propenoyl]amino]benzenesulfonamide]", "values": [{"measurement": "TNF Released", "setting": "[1]; [5]", "result": "632 ± 211", "unit": "pg/mL"}, {"measurement": "activity at 20 µM", "setting": "[1]; Homo sapiens, Microglia, 10 ng/ml LPS + 20 μM inhibitor, read-out: TNF Released, percent in parentheses (relative to LPS alone)", "result": 130, "unit": "%"}, {"measurement": "LPS-mediated cytokine release, TNF (in words)", "setting": "[1]; LPS stimulation", "result": "actually enhanced"}, {"measurement": "amount of IL-1β released into the medium (in words)", "setting": "[2]; [6]", "result": "marked and dose-dependent decrease"}, {"measurement": "IL-1 Released", "setting": "[2]; [7]", "result": "16.5 ± 6", "unit": "pg/mL"}, {"measurement": "Aβ1-40-mediated IL-1β release, selectivity versus LPS (in words)", "setting": "[2]; Aβ1-40 versus LPS stimulation", "result": "selectively inhibited"}, {"measurement": "activity at 20 µM", "setting": "[2]; Homo sapiens, Microglia, 50 μM Aβ1-40 + 20 μM inhibitor, read-out: IL-1 Released, percent in parentheses (relative to Aβ1-40 alone)", "result": 6, "unit": "%"}, {"measurement": "amount of TNF-α released into the medium (in words)", "setting": "[3]; [6]", "result": "marked and dose-dependent decrease"}, {"measurement": "TNF Released", "setting": "[3]; [7]", "result": "3.7 ± 1.4", "unit": "pg/mL"}, {"measurement": "Aβ1-40-mediated TNFα release, selectivity versus LPS (in words)", "setting": "[3]; Aβ1-40 versus LPS stimulation", "result": "selectively inhibited"}, {"measurement": "activity at 20 µM", "setting": "[3]; Homo sapiens, Microglia, 50 μM Aβ1-40 + 20 μM inhibitor, read-out: TNF Released, percent in parentheses (relative to Aβ1-40 alone)", "result": 4, "unit": "%"}, {"measurement": "IL-1 Released", "setting": "[4]; [5]", "result": "37 ± 0.3", "unit": "pg/mL"}, {"measurement": "activity at 20 µM", "setting": "[4]; Homo sapiens, Microglia, 10 ng/ml LPS + 20 μM inhibitor, read-out: IL-1 Released, percent in parentheses (relative to LPS alone)", "result": 163, "unit": "%"}, {"measurement": "LPS-mediated cytokine release, IL-1 (in words)", "setting": "[4]; LPS stimulation", "result": "actually enhanced"}]}]}
